In US20060270641A1, “Method for chemoprevention of prostate cancer” (priority 2005, published 2006):

Columns and labels:
[1] = tested on: prostate glands of TRAMP mice; assay: SERMs in prevention of prostate cancer in the TRAMP model (wholemount and histology at 20 weeks); type: in vivo, mouse; conditions: sacrificed at 20 weeks; for Animals with prostate cancer / animals evaluated (column has no head): placebo 5/5; for Percent of animals with prostate cancer (column has no head): placebo 100%
Description: Experimental design: Chemopreventive treatment of mice is initiated post-natal at 30 days. Three groups of 50 hybrid TRAMP male mice each are treated with either Tamoxifen citrate, Raloxifene (SERMs), or Faslodex (pure antiestrogen ICI 182,780). The drugs are obtained as customized sustained-release pellets (Innovative Research of America, Sarasota, Fla.) and delivered as subcutaneous implants (see preliminary data). Control animals receive placebo implant with no pharmacological activity. Animals (n=10) are sacrificed at periodic intervals, 10, 15, 20, 25 and 30 weeks age, and the efficacy of the treatment leading to either absence of tumor formation or reduction in tumor size, if present, is assessed by comparison with placebo control animals. Blood is collected to evaluate changes in serum androgens and estrogens with each treatment Prostatic tissues is saved: a) for morphometric studies; b) for histologic studies (the tissue will be fixed in 10% buffered formalin, processed and paraffin embedded); c) for molecular studies (the tissues is frozen in liquid nitrogen and stored at −70° C.). Necropsies and survival data is also recorded.
The results of the experiment reveal the relative chemopreventive efficacy of the various antiestrogens in the delay or prevention of prostate cancer in the TRAMP model. The morphological studies indicate the gross changes, if any, in the development of the prostate size and ductal pattern as a result of each treatment. Paraffinized tissue sections are stained using standard H&E techniques for histological changes such as PIN that will be assessed to monitor the appearance of precancerous lesions as a precursor of prostatic adenocarcinoma. Serum estradiol and total testosterone levels are measured for each age interval to assess any changes in these hormones and whether or not they correlate to changes in PIN. The peptide growth factor levels of TGF, TGF 1, TGF 3, and bFGF are quantitative in prostate samples taken at each interval. Corresponding peptide growth factor receptors are also assessed for EGFR and TGF RI and RII.

PIN = conditions: 60 mg daily for 4 months
LNCaP tumors = assay: Regression of established LNCaP tumors in athymic nude mice; type: in vivo
Description: Materials and Methods: One million LNCaP cells in Matrigel were subcutaneously injected into each flank of athymic nude mice. A total of 40 mice were injected. After approximately 3-4 weeks, visible tumors developed. After the tumor size was recorded in two dimensions, the mice were divided into placebo and treatment groups based on equivalent tumor burden. A single pellet (placebo versus toremifene 35 mg) was subcutaneously implanted between the scapulae of each mouse. Weekly measurements of the tumor size were recorded. Tumor volume was calculated (tumor volume=[…], where L=tumor length and W=width). The tumor volume at the time of pellet implantation served as the point of reference for future comparison of that tumor's size variation. The weekly variations of each tumor volume were recorded as percent differentiation from the original measurement at pellet implantation.

prostate of TRAMP mice = assay: TRAMP confirmation study: wholemount, histology, large T antigen immunohistochemistry; type: in vivo, mouse
Description: The present study focuses on the histological and molecular changes associated with development of prostate tumor in control animals and the mechanism of toremifene chemopreventive action with TRAMP animals which are bred, screened and treated with sustained-release drug pellets. At predetermined times, groups of 5 animals were sacrificed and their prostates were removed for analysis. The prostate glands were evaluated for the presence of tumor by histology, wholemount dissections, and large T antigen immunohistochemistry. To date, the Placebo and the Toremifene treatments have been completed for the 7, 10, 15 and 20 week time-points, and the results are described below.
Results: Prostatic wholemounts for 7,10,15, and 20 weeks for the various groups have been completed. […] By 20 weeks, there is a striking delay in tumor occurrence in the Toremifene treated group up to 35 weeks FIG. 4). […] For histological evaluation, tissue samples were fixed, processed and paraffin embedded. Sections ([…]) were cut and stained by routine H&E method.

[2] = tested on: TRAMP mouse ventral prostate; assay: Histological examination (H&E) of TRAMP prostate tissue; type: in vivo
Description: Tumors from the placebo and high toremifene-treated groups taken at the time of palpation were evaluated histologically. FIG. 2A is an H&E section of the ventral prostate of a 17-week-old normal adult mouse.

[3] = tested on: ventral prostate of TRAMP mice; assay: Chemopreventive activity in TRAMP transgenic mice, absence of palpable tumor formation; type: in vivo, mouse; conditions: for Week at which tumor formation in the ventral prostate was noted: n=12, placebo week 17; for Animals still tumor-free: all control animals had tumors
Excerpt: The study of prostate cancer chemoprevention has been hindered by the lack of appropriate animal models. The recent development of the transgenic adenocarcinoma mouse prostate (TRAMP) model enables the study of chemoprevention. In the TRAMP model, which is described in Greenberg et al., A Prostate cancer in a transgenic mouse, Proc. Natl Acad. Sci. USA, 1995, Vol. 92, pages 3439-3443, the PB-SV40 large T antigen (PB-Tag) transgene is expressed specifically in the epithelial cells of the murine prostate. As a result, this model has several advantages over currently existing models: 1) mice develop progressive forms of prostatic epithelial hyperplasia as early as 10 weeks and invasive adenocarcinoma around 18 weeks of age; 2) the metastatic spread of prostate cancer pattern mimics human prostate cancer with the common sites of metastases being lymph node, lung, kidney, adrenal gland, and bone; 3) the development as well as the progression of prostate cancer can be followed within a relatively short period of 10-30 weeks; 4) the tumors arise with prostate cancer transgene prior to the onset of clinical prostate cancer to directly test treatment with chemopreventive agents that may alter prostate carcinogenesis.
A study was undertaken to test the efficacy of chemopreventive agents in TRAMP transgenic animals (PBTag×FVBwt)(provided by Dr. Norman Greenberg, Baylor College of Medicine, Tex.). […] The TRAMP transgenic male litters were screened for the Large Tag transgene, and the positive males were used in the study. The antiestrogen toremifene, which was to be tested for its possible chemopreventive effects, was incorporated in customized pellets (Innovative Research of America, Sarasota, Fla.), and chemopreventive treatment of mice was initiated postnatally at 30 days (average mouse weight 14 g) Four groups of 10-12 animals each received subcutaneous implantations of 90 day-release toremifene-containing pellets. The diffusible drug dosage, adjusted for growth related changes in weight, was designed to deliver either a low dose (6 mg/kg) or a high dose (30 mg/kg) of toremifene. Control animals (n=IO) received placebo implants The efficacy of the treatment was measured by the absence of palpable tumor formation. The murine prostate tumors were harvested and evaluated by molecular and histological techniques

[4] = tested on: human stromal fibroblast cells; assay: TGFβ synthesis in human stromal fibroblast cells; type: cell-based

With `CC/C(=C(\c1ccccc1)c1ccc(OCCN(C)C)cc1)c1ccccc1` [Tamoxifen] the “Animals with prostate cancer / animals evaluated (column has no head)” value ([1]; 20 mg/kg/d) was 2/9 and the “Percent of animals with prostate cancer (column has no head)” value (“Percent of animals … (column has no head)” below) ([1]; 20 mg/kg/d) was 22%.

For `C[C@]12CC[C@@H]3c4ccc(O)cc4C[C@@H](CCCCCCCCC[S+]([O-])CCCC(F)(F)C(F)(F)F)[C@H]3[C@@H]1CC[C@@H]2O` (some centres unmarked) [Faslodex], the “Animals with prostate cancer / animals evaluated (column has no head)” value ([1]; 10 mg/kg/d) was 8/11 and the “Percent of animals … (column has no head)” value ([1]; 10 mg/kg/d) was 72%.

`CN(C)CCOc1ccc(/C(=C(/CCCl)c2ccccc2)c2ccccc2)cc1` [Toremifene] was tested, and the “Animals with prostate cancer / animals evaluated (column has no head)” value ([1]; 20 mg/kg/d) was 1/7, the “Percent of animals … (column has no head)” value ([1]; 20 mg/kg/d) was 14.2% and the “Acute or chronic toxicities” value (PIN) was “no acute or chronic toxicities”. The “Quality of life, including potency and libido” value (PIN) was “unchanged”, the “Serum PSA, serum free testosterone, serum total testosterone and serum estradiol” value (PIN) was “remained in the normal ranges” and the Complete response (PIN; 16 patients completed) was 75%. The “Patients who had prostate cancer but the amount of PIN was reduced” value (PIN; of 16 patients) was 3 patients, the “Patients with stable disease (PIN epithelium with atrophic and degenerative changes)” value (PIN; of 16 patients) was 1 patient and the “Patients with regression of PIN to benign or atrophic prostate tissue” value (PIN; rebiopsy (8 biopsies)) was 12 out of 16. For the same molecule, the “Mean tumor volume after treatment” value (LNCaP tumors; toremifene 35 mg pellet, 1.90 mm^3 at pellet implantation, placebo increased to 2.33) was 1.68 mm^3, the “Mean serum PSA level” value (LNCaP tumors; toremifene 35 mg pellet, not statistically significant vs placebo (p=0.755)) was 2.80 ng/mL and the “Change of mean tumor volume” value (LNCaP tumors; toremifene 35 mg pellet, vs volume at pellet implantation) was −0.22 mm^3. For the same molecule, the “% Change in volume relative to day 0 of treatment” value (LNCaP tumors; week 3, toremifene 35 mg sc pellet, N=11) was −34.58%, the “% Change in volume relative to day 0 of treatment” value (LNCaP tumors; week 4, toremifene 35 mg sc pellet, N=7) was −61.01% and the “% Change in volume relative to day 0 of treatment” value (LNCaP tumors; week 5, toremifene 35 mg sc pellet, N=7) was −74.51%. The “% Change in volume relative to day 0 of treatment” value (LNCaP tumors; week 6, toremifene 35 mg sc pellet, N=5) was −61.72%, the “Delay in the occurrence of prostate cancer (wholemount analysis)” value (prostate of TRAMP mice; FIG. 3, placebo tumors by 15-20 weeks of age) was “up to 20 weeks” and the “Delay in tumor occurrence” value (prostate of TRAMP mice; FIG. 4) was “up to 35 weeks”. The “Effect on ductal development and tissue differentiation (histology)” value (prostate of TRAMP mice; H&E sections) was “inhibited the ductal development and tissue differentiation”, the “Mitotic index relative to placebo-treated animal” value ([2]; toremifene-treated 30-week-old TRAMP mouse vs placebo-treated 16-week-old) was “much lower” and the “Prostate histology (glandular architecture)” value ([2]; toremifene-treated 30-week-old TRAMP mouse, H&E, FIG. 2C) was “retains much of the normal glandular architecture”. For the same molecule, the “Delay of time to palpable tumors in 25% of the animals” value ([3]; high and low toremifene groups vs placebo) was 7-8 weeks, the “Time at which tumors were palpable in 25% of the animals” value ([3]; high and low toremifene groups, placebo week 23) was 30-31 weeks and the “Week at which tumor formation in the ventral prostate was noted” value ([3]; high dose (30 mg/kg) 90 day-release sc pellet) was 19 week. The “Week at which tumor formation in the ventral prostate was noted” value ([3]; low dose (6 mg/kg) 90 day-release sc pellet) was 28 week, the “Increase of latency period for development of cancer in the ventral prostate” value ([3]; vs placebo) was “up to 11 weeks” and the Animals still tumor-free ([3]; week 33, high dose (30 mg/kg)) was 60%. For the same molecule, the Animals still tumor-free ([3]; week 33, low dose (6 mg/kg)) was 72% and the TGFβ synthesis [4] was “significantly induce”.

With `O=C(c1ccc(OCCN2CCCCC2)cc1)c1c(-c2ccc(O)cc2)sc2cc(O)ccc12` [Raloxifene, 6-hydroxy-2-(4-hydroxyphenyl)-3-[4-(2-piperidinoethoxy)benzoyl]benzo[b]thiophene] the “Animals with prostate cancer / animals evaluated (column has no head)” value ([1]; 20 mg/kg/d) was 3/10 and the “Percent of animals … (column has no head)” value ([1]; 20 mg/kg/d) was 30%.
